For one series, the system named is PBMC from CLL patients. The experiment in a line: CellTiter-Blue cell viability assay, cell toxicity in PBMC from CLL patients. In kind it is cell-based. The note with it: Homo sapiens, 50 000 cells/well, cultured 24, 48 and 72 h (time of the IC50 not stated), % cytotoxicity vs 0.2% DMSO. The protocol:
(§1) Method for Measurement of Cell Toxicity
(§2) The CellTiter-Blue® Cell Viability Assay provides a homogeneous, fluorometric method for estimating the number of viable cells present in multi-well plates. The assay uses the indicator dye resazurin to measure the metabolic capacity of cells. Viable cells retain the ability to reduce resazurin into resorufin, which is highly fluorescent.
(§3) Stock solutions (10 or 100 mM in DMSO) of compounds were serially diluted 1:2 in 11 concentrations and 25 nL/well (100 mM stock) or 50 nL/well (10 mM stock) were acoustically dispensed in assay plates with an EDC acoustic dispenser. Final starting concentration in the assay was 20 μM (0.2% DMSO) or 100 μM (0.1% DMSO) for test compounds.
(§4) Peripheral blood mononuclear cells (PBMC) from CLL patients or healthy volunteers were seeded in assay plates (384-well black/clear, Greiner #781091) pre-dispensed with compounds, 25 μL/well, and cultured for 24, 48 and 72 h. The cell concentration was 50 000 cells/well for PBMC from CLL patients or healthy volunteers. After 24, 48 and 72 h culture, Celltiter Blue reagent was added (5 μL/well) and the plates were incubated for 2 h. The plates were read in an Envision fluorescence reader (PerkinElmer) with Ex544 nm/Em590 nm. Results were calculated as % cytotoxicity compared to background (cells treated with 0.2% DMSO).
(§5) Thus, IC50 values for cell toxicity in PBMC from CLL patients as well as healthy volunteers for some compounds of the invention are shown in Table 3.
(Alamar Blue is a resazurin reagent that responds to reducing activity.)

Series [1] in a line: CellTiter-Blue cell viability assay, cell toxicity in PBMC from healthy volunteers. The format is cell-based. The note with it: human, 50 000 cells/well, cultured 24, 48 and 72 h (time of the IC50 not stated), % cytotoxicity vs 0.2% DMSO. As to the method: as §1, §2, §3, §4, §5

A value given as a limit tells only on which side of the number the result lay.

Broadly, the IC50 is the midpoint of a concentration-inhibition curve.

As to `CNC(=O)COc1ccc(-c2nc3c(NC4CCN(Cc5ccncc5)CC4)c(Cl)cnc3[nH]2)cc1` [Example 71, 2-[4-(6-chloro-7-{[1-(pyridin-4-ylmethyl)piperidin-4-yl]amino}-3H-imidazo[4,5-b]pyridin-2-yl)phenoxy]-N-methylacetamide], the IC50 with PBMC from CLL patients was 1.9 µM; in series [1], above 20 µM.
Consider `CCN1CC[C@H](Nc2c(Cl)cnc3[nH]c(-c4ccc(OCC(=O)NC)cc4)nc23)C1` [Example 132, 2-[4-(6-chloro-7-{[(3S)-1-ethylpyrrolidin-3-yl]amino}-3H-imidazo[4,5-b]pyridin-2-yl)phenoxy]-N-methylacetamide], for which the values for the IC50 (in the series with PBMC from CLL patients; in series [1]) were 0.86 µM and above 20 µM, respectively.
On the same counts, the results for `CNC(=O)COc1ccc(-c2nc3c(NC4CCN(Cc5ccc(C)cc5)CC4)c(Cl)cnc3[nH]2)cc1` [Example 82, 2-[4-(6-chloro-7-{[1-(4-methylbeiizyl)piperidin-4-yl]amino}-3H-imidazo[4,5-b]pyridin-2-yl)phenoxy]-N-methylacetamide] are 0.48 µM and above 20 µM.
Regarding `CNC(=O)COc1ccc(-c2nc3c(NC4CCN(C)CC4)c(Br)cnc3[nH]2)cc1F` [Example 184, 2-(4-{6-bromo-7-[(1-methylpiperidin-4-yl)amino]-3H-imidazo[4,5-b]pyridin-2-yl}-2-fluorophenoxy)-N-methylacetamide], the IC50 with PBMC from CLL patients is 0.11 µM; in series [1], above 20 µM.

These data come from patent US10550113B2, “2-phenyl-3H-imidazo[4,5-B]pyridine derivates useful as inhibitors of mammalian tyrosine kinase ROR1 activity” (Kancera AB, priority 2015, dated 2020).
